This passage reports IC50 results from US20260008760A1, “DIPEPTIDYL PEPTIDASE 1 INHIBITORS AND USES THEREOF” (Insmed Incorporated, priority 2024, published 2026).

One experiment concerns the target DPP1 in HL-60 cells (Homo sapiens, UniProt P53634). Briefly: DPP1 Cell IC50 assay. It is filed as cell-based. More on the design: host or cells: HL-60 cells. Conditions: 60 min pre-incubation, H-Gly-Phe-AFC substrate, average of n runs, read-out: Avg. IC50 (DPP1 Cell IC50 value ranges). As to the method:
Example 99. DPP1 Cell IC50 assay
HL-60 cells (ATCC; Manassas, VA) were maintained in RPMI-1640 supplemented with 20% heat-inactivated FBS and 1× Antibiotic Antimycotic (Cytiva; Marlborough, MA). Media was changed every three to four days and cells were not allowed to exceed 1×10^6 cells per mL. Prior to assay, cells were collected by centrifugation at 500 rcf for 3 minutes, resuspended in PBS and counted. Cells were diluted in PBS to a concentration of 5×10^5 live cells per mL and transferred to black 96-well plates for assay, 60 μL per well. Test articles were diluted in PBS plus 0.5% DMSO, and 20 μL was added to each assay well. Compound was allowed to pre-incubate with cells with gentle shaking at 100 rpm for 60 minutes at 37° C. in a cell culture incubator maintained at 5% CO2, after which 20 μL of 500 μM H-Gly-Phe-AFC substrate (MP Biomedicals; Solon, OH) was added to each well. Plates were returned to the incubator with shaking at 100 rpm for 30 minutes, after which fluorescence was measured at Excitation/Emission 400/505 nm. % Inhibition was calculated from RFU values compared to control cell wells that received only PBS plus 0.5% DMSO. IC50 values for each compound were calculated via the XLFit (IDBS Version 5.3.1.3) Add-On to Microsoft Excel using the four parameter fit equation y=(A+((B−A)/(1+((C/x)^D)))), which appears as equation number 205 (4 Parameter Logistic Model or Sigmoidal Dose-Response Model) in XLFit. IC50 was defined as the compound concentration at which 50% of enzyme activity was inhibited when compared to the no-compound control.

The next experiment deals with human DPP1 enzyme (Homo sapiens, UniProt P53634). Description: Human DPP1 Enzyme IC50 Assay. It is filed as biochemical. More on the design: was first proteolytically processed into its mature form using recombinant human cathepsin L; purchased R&D Systems. As to conditions: activated recombinant human DPP1, 400 μM H-Gly-Arg-AMC, 10 minutes pre-incubation at 37° C., pH 6.0; average of n runs; read-out: Avg. IC50 (Human DPP1 enzyme IC50 value ranges). As for the experimental part:
Example 97. Human DPP1 Enzyme IC50 Assay
Recombinant human DPP1 enzyme (R&D Systems; Minneapolis, MN) was first proteolytically processed into its mature form using recombinant human cathepsin L (R&D Systems) in a buffer consisting of 20 mM citric acid pH 4.5, 150 mM NaCl, 1 mM EDTA and 10 mM DTT. Test articles were applied to activated human DPP1 enzyme in Assay Buffer (25 mM MES pH 6.0, 50 mM NaCl, 5 mM DTT) in a total reaction volume of 125 μL. 25 μL of compound in Assay Buffer plus 5% DMSO was first added to 50 μL of activated human DPP1 enzyme at a concentration of 1 ng/μL and allowed to pre-incubate for 10 minutes at 37° C. after which 50 μL of 1000 μM H-Gly-Arg-AMC substrate (Bachem; St. Torrance, CA) was added, giving final substrate concentration of 400 μM and a final DMSO concentration of 1%. Substrate cleavage was measured for 90 minutes at 37° C., with fluorescence at Excitation/Emission 350/450 nm measured every 5 minutes. DPP1 concentration was interpolated based on its activity relative to a standard curve of activated human recombinant DPP1 enzyme. IC50 values for each compound were calculated via the XLFit (IDBS Version 5.3.1.3) Add-On to Microsoft Excel using the four parameter fit equation y={A+[(B−A)]/[1+((C/x)^D)]}, which appears as equation number 205 (4 Parameter Logistic Model or Sigmoidal Dose-Response Model) in XLFit. Default constraints were used for each Parameter. IC50 was defined as the compound concentration at which 50% of enzyme activity was inhibited when compared to the no-compound control.

Chain of DPP1 in HL-60 cells (P53634 25-463): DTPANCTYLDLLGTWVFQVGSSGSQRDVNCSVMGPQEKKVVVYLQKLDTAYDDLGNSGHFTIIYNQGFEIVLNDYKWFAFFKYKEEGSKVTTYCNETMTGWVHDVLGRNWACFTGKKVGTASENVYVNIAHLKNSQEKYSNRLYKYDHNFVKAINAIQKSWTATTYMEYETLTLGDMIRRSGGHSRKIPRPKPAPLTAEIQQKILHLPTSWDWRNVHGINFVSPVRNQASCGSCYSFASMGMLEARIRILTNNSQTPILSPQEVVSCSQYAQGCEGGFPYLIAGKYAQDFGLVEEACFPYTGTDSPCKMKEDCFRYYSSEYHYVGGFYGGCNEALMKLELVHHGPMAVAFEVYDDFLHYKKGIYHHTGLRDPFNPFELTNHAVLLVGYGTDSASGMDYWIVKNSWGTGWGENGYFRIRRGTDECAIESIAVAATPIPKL
Chain of human DPP1 enzyme (P53634 25-134 limits assumed): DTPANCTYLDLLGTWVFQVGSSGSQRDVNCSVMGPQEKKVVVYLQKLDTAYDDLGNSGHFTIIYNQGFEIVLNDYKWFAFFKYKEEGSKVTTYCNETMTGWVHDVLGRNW
Chain of human DPP1 enzyme (P53634 231-394 limits assumed): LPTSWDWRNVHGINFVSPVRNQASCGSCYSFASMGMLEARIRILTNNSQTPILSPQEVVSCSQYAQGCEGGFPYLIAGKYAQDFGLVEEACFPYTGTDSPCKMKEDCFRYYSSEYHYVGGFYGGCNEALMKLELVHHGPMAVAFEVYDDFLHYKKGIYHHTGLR
Chain of human DPP1 enzyme (P53634 395-463 limits assumed): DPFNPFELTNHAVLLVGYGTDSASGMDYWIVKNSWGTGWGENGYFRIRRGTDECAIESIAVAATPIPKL

Regarding `N#C[C@H](Cc1ccc(-c2csc(-c3nnc(N)o3)c2)cc1)NC(=O)[C@@H]1CNCCCO1` [Compound D2, (2S)—N-[(1S)-2-{4-[5-(5-amino-1,3,4-oxadiazol-2-yl)thiophen-3-yl]phenyl}-1-cyanoethyl]-1,4-oxazepane-2-carboxamide], the IC50 on DPP1 in HL-60 cells was over 2.5 nM; at human DPP1 enzyme it was over 15 nM.

`C[C@@H]1NC[C@@H](C(=O)N[C@H](C#N)Cc2ccc(-c3ccc4c(F)nn(C)c4c3)cc2)OC[C@@H]1O` [Compound A160]: the values for the IC50 on DPP1 in HL-60 cells and at human DPP1 enzyme were 1 to 2.5 nM and 5 to 15 nM, respectively.

As to `CO[C@@H]1CCNC[C@@H](C(=O)NC(C#N)Cc2cnc(-c3ccc4c(F)nn(C)c4c3)s2)OC1` (mixture of isomers) [Compound A38, (2S,7R)—N-{1-cyano-2-[2-(3-fluoro-1-methylindazol-6-yl)-1,3-thiazol-5-yl]ethyl}-7-methoxy-1,4-oxazocane-2-carboxamide], the IC50 at DPP1 in HL-60 cells is 1 to 2.5 nM; on human DPP1 enzyme, 5 to 15 nM.

As to `CN1C(=O)C2(CCN(C3CCOCC3)CC2)c2cc(-c3ccc(C[C@@H](C#N)NC(=O)[C@@H]4CNCCCO4)cc3)ccc21` [Compound 35], the half-maximal inhibitory concentration (IC50) on DPP1 in HL-60 cells was over 2.5 nM; on human DPP1 enzyme, over 15 nM.

For the molecule `CO[C@H]1CCO[C@H](C(=O)N[C@H](C#N)Cc2ccc(-c3ccc(C#N)cc3)cc2)CNC1` [Compound F1, (2S,6S)—N-[(1S)-1-cyano-2-{4′-cyano-[1,1′-biphenyl]-4-yl}ethyl]-6-methoxy-1,4-oxazocane-2-carboxamide], the half-maximal inhibitory concentration (IC50) on DPP1 in HL-60 cells was over 2.5 nM; at human DPP1 enzyme it was over 15 nM.

Turning to `CO[C@H]1CCO[C@H](C(=O)NC(C#N)Cc2cc3cc(-c4cc5c(C)nc(C)cn5c4)ccc3s2)CNC1` (single isomer, unassigned) [Compound A46], the IC50 on DPP1 in HL-60 cells is over 2.5 nM; on human DPP1 enzyme it was over 15 nM.

`COC1CNC[C@@H](C(=O)N[C@H](C#N)Cc2ccc(-c3ccc4nnn(C)c4c3)cc2)OC1` (single isomer, unassigned) [Compound H12-A]: the half-maximal inhibitory concentration (IC50) is over 2.5 nM on DPP1 in HL-60 cells and over 15 nM on human DPP1 enzyme.

As to `C[C@@H]1NC[C@@H](C(=O)N[C@H](C#N)Cc2ccc(-c3ccc4c(F)nn(C)c4c3)cc2F)OC[C@@H]1O` [Compound A166], the half-maximal inhibitory concentration (IC50) was 1 to 2.5 nM on DPP1 in HL-60 cells and 5 to 15 nM on human DPP1 enzyme.

With `CN1C(=O)CCc2cc(-c3ccc(C[C@@H](C#N)NC(=O)[C@@H]4CNCC[C@@H](F)CO4)c(F)c3)ccc21` [Compound A155], the half-maximal inhibitory concentration (IC50) lay within 1 to 2.5 nM on DPP1 in HL-60 cells and 5 to 15 nM on human DPP1 enzyme.

For the molecule `N#C[C@H](Cc1ccc(-c2ccc3c(c2)[C@@]2(CCN(C4COC4)C2)COC3)cc1)NC(=O)[C@@H]1CNCCCO1` [Compound I6], the IC50 at DPP1 in HL-60 cells was over 2.5 nM; on human DPP1 enzyme, 5 to 15 nM.

On to `CO[C@@H]1CCNC[C@@H](C(=O)N[C@H](C#N)Cc2ccc(-c3ccc4cnn(C)c4c3)cc2F)OC1` [Compound H7, (2S,7R)—N-[(1S)-1-cyano-2-[2-fluoro-4-(1-methylindazol-6-yl)phenyl]ethyl]-7-methoxy-1,4-oxazocane-2-carboxamide], for which the IC50 on DPP1 in HL-60 cells was under 1 nM; at human DPP1 enzyme, under 5 nM.

Turning to `CO[C@H]1CCO[C@H](C(=O)NC(C#N)Cc2cc3c(cc2F)-c2cc(C4COC4)c(F)cc2CO3)CNC1` (mixture of isomers) [Compound B15, (2S,6S)—N-{1-cyano-2-[2,8-difluoro-9-(oxetan-3-yl)-6H-benzo[c]chromen-3-yl]ethyl}-6-methoxy-1,4-oxazocane-2-carboxamide], the IC50 at DPP1 in HL-60 cells is 1 to 2.5 nM; on human DPP1 enzyme, under 5 nM.

For `CO[C@@H]1CCNC[C@@H](C(=O)N[C@H](C#N)Cc2ccc(-c3cc4c(C)nc(C)cn4c3)cc2)OC1` [Compound A32, (2S,7R)—N-[(1S)-1-cyano-2-(4-{1,3-dimethylpyrrolo[1,2-a]pyrazin-7-yl}phenyl)ethyl]-7-methoxy-1,4-oxazocane-2-carboxamide], the concentration for half-maximal inhibition (IC50) on DPP1 in HL-60 cells was 1 to 2.5 nM; at human DPP1 enzyme it was over 15 nM.

On to `CCCCOCCn1c(=O)oc2ccc(-c3ccc(C[C@@H](C#N)NC(=O)[C@@H]4CNC[C@@H](OC)CCO4)cc3)cc21` [Compound F2, (2S,6S)—N-[(1S)-2-{4-[3-(2-butoxyethyl)-2-oxo-1,3-benzoxazol-5-yl]phenyl}-1-cyanoethyl]-6-methoxy-1,4-oxazocane-2-carboxamide], for which the 50% inhibitory concentration (IC50) was over 2.5 nM on DPP1 in HL-60 cells and over 15 nM at human DPP1 enzyme.

For the molecule `N#C[C@H](Cc1ccc(-c2ccc3c(c2)C2(CCN(c4nccs4)CC2)SC3)cc1)NC(=O)[C@@H]1CNCCCO1` [Compound I16], the half-maximal inhibitory concentration (IC50) was over 2.5 nM at DPP1 in HL-60 cells and over 15 nM at human DPP1 enzyme.

As to `Cc1ncc(C)n2cc(-c3ccc(C[C@@H](C#N)NC(=O)[C@@H]4CNCCCO4)cc3)cc12` [Compound A63], the IC50 at DPP1 in HL-60 cells was over 2.5 nM; on human DPP1 enzyme, over 15 nM.

For the molecule `Cn1nnc2cc3c(cc21)-c1cc(F)c(C[C@@H](C#N)NC(=O)[C@@H]2CNCCCO2)cc1OC3` [Compound C34], the IC50 was 1 to 2.5 nM at DPP1 in HL-60 cells and under 5 nM on human DPP1 enzyme.

Turning to `CO[C@@H]1CCNC[C@@H](C(=O)N[C@H](C#N)Cc2cc3c(cc2F)-c2cc(C4COC4)c(F)cc2CO3)OC1` [Compound B12, (2S,7R)—N-{1-cyano-2-[2,8-difluoro-9-(oxetan-3-yl)-6H-benzo[c]chromen-3-yl]ethyl}-7-methoxy-1,4-oxazocane-2-carboxamide], the half-inhibitory concentration (IC50) on DPP1 in HL-60 cells is 1 to 2.5 nM; on human DPP1 enzyme it was under 5 nM.

`C[C@@H]1NC[C@@H](C(=O)N[C@H](C#N)Cc2ccc(-c3ccc4c(c3)CCC(=O)N4C)cc2)OC[C@@H]1O` [Compound A148]: the half-maximal inhibitory concentration (IC50) is over 2.5 nM on DPP1 in HL-60 cells and over 15 nM at human DPP1 enzyme.

On to `Cc1cn2cc(-c3cc4sc(C[C@H](C#N)NC(=O)[C@@H]5CNCCCCO5)cc4s3)cc2c(C)n1` (single isomer, unassigned) [Compound A31], for which the IC50 is over 2.5 nM at DPP1 in HL-60 cells and over 15 nM at human DPP1 enzyme.

`CO[C@@H]1CCNC[C@@H](C(=O)N[C@H](C#N)Cc2ccc(-c3ccc4c(c3)CCC(=O)N4C)cc2F)OC1` [Compound A151]: the concentration for half-maximal inhibition (IC50) on DPP1 in HL-60 cells is 1 to 2.5 nM; on human DPP1 enzyme, under 5 nM.

For `N#C[C@H](Cc1ccc(-c2ccc3c(c2)CCS3)cc1)NC(=O)[C@@H]1CNCCCO1` [Compound A4, (2S)—N-[(1S)-1-cyano-2-[4-(2,3-dihydro-1-benzothiophen-5-yl)phenyl]ethyl]-1,4-oxazepane-2-carboxamide], the IC50 on DPP1 in HL-60 cells is over 2.5 nM; on human DPP1 enzyme, over 15 nM.

With `N#C[C@H](Cc1ccc(-c2ccc3c(c2)C2(CCNCC2)CC3=O)cc1)NC(=O)[C@@H]1CNCCCO1` [Compound 30, (2S)—N-[(1S)-1-cyano-2-(4-{3-oxo-2H-spiro[indene-1,4′-piperidin]-6-yl}phenyl)ethyl]-1,4-oxazepane-2-carboxamide], the IC50 on DPP1 in HL-60 cells was over 2.5 nM; at human DPP1 enzyme it was 5 to 15 nM.

For the molecule `CN1C(=O)C2(CCN(C3COC3)CC2)c2cc(-c3ccc(C[C@@H](C#N)NC(=O)[C@@H]4CNCCCO4)cc3)ccc21` [Compound 29, (2S)—N-[(1S)-1-cyano-2-{4-[1-methyl-1′-(oxetan-3-yl)-2-oxospiro[indole-3,4′-piperidin]-5-yl]phenyl}ethyl]-1,4-oxazepane-2-carboxamide], the IC50 at DPP1 in HL-60 cells is over 2.5 nM; at human DPP1 enzyme, over 15 nM.

With `N#C[C@H](Cc1ccc(NC(=O)c2csc(-c3cscn3)n2)cc1)NC(=O)[C@@H]1CNCCCO1` [Compound D7, (2S)—N-[(1S)-1-cyano-2-{4-[2-(1,3-thiazol-4-yl)-1,3-thiazole-4-amido]phenyl}ethyl]-1,4-oxazepane-2-carboxamide], the 50% inhibitory concentration (IC50) is over 2.5 nM at DPP1 in HL-60 cells and over 15 nM on human DPP1 enzyme.

As usually defined, the IC50 is the concentration at which inhibition is half-maximal.
